This note sets out measurements from paper PMC8356711 (Research in Pharmaceutical Sciences, 2021).

“Also recorded” adds a separate entry of the source.

Broadly, the IC50 is the concentration needed to halve the response being measured. A higher IC50 goes with weaker potency in that assay.

T1 sequence (C7FF04 1-392): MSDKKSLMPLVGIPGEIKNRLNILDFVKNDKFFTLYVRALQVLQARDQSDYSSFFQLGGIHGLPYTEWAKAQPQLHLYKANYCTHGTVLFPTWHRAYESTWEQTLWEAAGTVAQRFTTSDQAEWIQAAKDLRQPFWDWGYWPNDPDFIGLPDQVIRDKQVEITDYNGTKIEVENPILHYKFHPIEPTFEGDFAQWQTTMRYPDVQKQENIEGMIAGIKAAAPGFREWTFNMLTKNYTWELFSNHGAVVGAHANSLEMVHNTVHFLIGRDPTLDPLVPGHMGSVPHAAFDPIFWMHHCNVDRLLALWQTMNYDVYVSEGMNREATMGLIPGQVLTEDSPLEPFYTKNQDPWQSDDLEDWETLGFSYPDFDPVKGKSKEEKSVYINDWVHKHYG

The first assay concerns the target T1, mushroom tyrosinase (Agaricus bisporus, UniProt C7FF04). Put plainly: biochemical.
Conditions: not given
The compound `COc1ccccc1/C=C1\CCc2cc(O)ccc2C1=O` [C3, (E)-6-hydroxy-2-(2-methoxybenzylidene)-3,4-dihydronaphthalen-1(2H)-one] gave an IC50 of 11.1 ± 2.5 µM.

`O=C1/C(=C/c2ccc(O)cc2)CCc2cc(O)ccc21` [C5, (E)-6-hydroxy-2-(4-hydroxybenzylidene)-3,4-dihydronaphthalen-1(2H)-one]: half-maximal inhibition (IC50) was put at 48.6 ± 2.9 µM.

Turning to `COc1ccc(/C=C2\CCc3cc(O)ccc3C2=O)cc1` [C1, (E)-6-hydroxy-2-(4-methoxybenzylidene)-3,4-dihydronaphthalen-1(2H)-one], the midpoint of inhibition, the IC50, lay at 17.6 ± 1.1 µM.

`COc1cc(/C=C2\CCc3cc(O)ccc3C2=O)cc(OC)c1OC` [C2, (E) - 6-hydroxy - 2-(3,4,5-trimethoxy-benzylidene)-3,4-dihydronaphthalen-1(2H)-one]: half-maximal inhibition (IC50) was put at 8.8 ± 1.8 µM.

Consider `O=C1/C(=C/c2ccc(Cl)cc2)CCc2cc(O)ccc21` [C7, (E)-2-(4-chlorobenzylidene)-6-hydroxy-3,4-dihydronaphthalen-1(2H)-one], for which the IC50 worked out at 22.4 ± 3.1 µM.

`CCOc1cc(/C=C2\CCc3cc(O)ccc3C2=O)ccc1O` [C4, (E)-2-(3-ethoxy-4-hydroxybenzylidene)-6-hydroxy-3,4-dihydronaphthalen-1(2H)-one] yielded an IC50 of 21.4 ± 3.1 µM.

Compound `COc1cc(/C=C2\CCc3cc(O)ccc3C2=O)cc(OC)c1O` [C9, (E)-6-hydroxy-2-(4-hydroxy-3,5-dimethoxy-benzylidene)-3,4-dihydronaphthalen-1(2H)-one] had an IC50 of more than 50 µM.

As to `COc1ccc(/C=C2\CCc3cc(O)ccc3C2=O)cc1OC` [C6, (E)-2-(3,4-dimethoxybenzylidene)-6-hydroxy-3,4-dihydronaphthalen-1(2H)-one], the IC50 was 17.6 ± 2.4 µM.

The next assay has as its target T1, mushroom tyrosinase.
Test: not given
The conditions noted are these: Lineweaver-Burk plot, L-DOPA substrate.
As for `COc1cc(/C=C2\CCc3cc(O)ccc3C2=O)cc(OC)c1OC` [C2, (E) - 6-hydroxy - 2-(3,4,5-trimethoxy-benzylidene)-3,4-dihydronaphthalen-1(2H)-one], the inhibition type result is “competitively; also recorded: competitive tyrosinase inhibitor”.
